{"source": "patent US20220241249A1", "about": "“PHARMACEUTICAL COMPOSITION AND KIT CONTAINING NOVEL PENAM DERIVATIVE OR SALT THEREOF AND ONE OR MORE COMPOUNDS SELECTED FROM beta-LACTAMASE INHIBITORY COMPOUND AND ANTIBACTERIAL COMPOUND OR SALTS THEREOF” (priority 2019, published 2022)", "experiment_in_all_cases": "Antibacterial activity evaluation test, MIC by broth microdilution (CLSI)", "format_in_all_cases": "cell-based", "key": {"[1]": {"test_system": "AmpC-derepressed Pseudomonas aeruginosa mutant strain (S-3028)", "settings": "Pseudomonas aeruginosa", "how_it_was_run": "(§1)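 CLSI broth microdilution; cation-adjusted MH medium + compound; inoculum 0.5 McFarland ÷10 from overnight MH agar; 35° C., 16–20 h; visual read, no-growth endpoint.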"}, "[2]": {"test_system": "CTX-M-15-containing Escherichia coli strain (TK-1747)", "settings": "Escherichia coli", "how_it_was_run": "as §1"}, "[3]": {"test_system": "GES-19 and GES-20-containing Pseudomonas aeruginosa strain (S-3759)", "settings": "Pseudomonas aeruginosa", "how_it_was_run": "as §1"}, "[4]": {"test_system": "IMP-1-containing Pseudomonas aeruginosa strain (S-2838)", "settings": "Pseudomonas aeruginosa", "how_it_was_run": "as §1"}, "[5]": {"test_system": "KPC-2-containing Klebsiella pneumoniae strain (Y-995)", "settings": "Klebsiella pneumoniae", "how_it_was_run": "as §1"}, "[6]": {"test_system": "NDM-1-containing Klebsiella pneumoniae strain (Y-1007)", "settings": "Klebsiella pneumoniae", "how_it_was_run": "as §1"}, "[7]": {"test_system": "OXA-48-containing Klebsiella pneumoniae strain (Y-1062)", "settings": "Klebsiella pneumoniae", "how_it_was_run": "as §1"}, "[8]": {"test_system": "Pseudomonas aeruginosa strain ATCC27853", "settings": "Pseudomonas aeruginosa, ATCC27853", "how_it_was_run": "as §1"}, "[9]": {"test_system": "VIM-2-containing Pseudomonas aeruginosa strain (S-3779)", "settings": "Pseudomonas aeruginosa", "how_it_was_run": "as §1"}}, "data": [{"smiles": "CC(C)(O/N=C(\\C(=O)NC1C(=O)N2C[C@@](C(=O)O)(N3CCN(NC(=O)C(=O)c4ccc(O)c(O)c4Cl)C(=O)C3=O)S[C@H]12)c1csc(N)n1)C(=O)O", "note": "(stereo partly drawn) [Example 126, (3R,5R,6R)-6-((Z)-2-(2-aminothiazol-4-yl)-2-(((2-carboxypropan-2-yl)oxy)imino)aceta-mido)-3-(4-(2-(2-chloro-3,4-dihydroxy-phenyl)-2-oxoaceta-mido)-2,3-dioxopipera-zin-1-yl)-7-oxo-4-thia-1-azabicyclo[3.2.0]-heptane-3-carboxylic acid]", "values": [{"measurement": "MIC", "setting": "[1]", "value": 0.5, "unit": "µg/mL"}, {"measurement": "MIC", "setting": "[2]", "value": "< 0.06", "unit": "µg/mL"}, {"measurement": "MIC", "setting": "[3]", "value": 0.5, "unit": "µg/mL"}, {"measurement": "MIC", "setting": "[4]", "value": 2, "unit": "µg/mL"}, {"measurement": "MIC", "setting": "[5]", "value": 0.12, "unit": "µg/mL"}, {"measurement": "MIC", "setting": "[6]", "value": "< 0.06", "unit": "µg/mL"}, {"measurement": "MIC", "setting": "[7]", "value": 1, "unit": "µg/mL"}, {"measurement": "MIC", "setting": "[8]", "value": 1, "unit": "µg/mL"}, {"measurement": "MIC", "setting": "[9]", "value": 1, "unit": "µg/mL"}]}]}
